What was measured:
Capivasertib = compound: C1CN(CCC1(C(=O)N[C@@H](CCO)C2=CC=C(C=C2)Cl)N)C3=NC=NC4=C3C=CN4 [Capivasertib]; conditions: max 10 µM
Outline: (§1)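 Cancer cell lines in 1536-well plates (7.5 μl DMEM/F12 or RPMI, 10% FBS) were held 24 hours at 37°C and 5% CO2 and then dosed for 72 hours at a final DMSO of typically 0.2%. Viability was taken from CellTiter-Glo 2.0 luminescence, scaled between blank-well and DMSO-well means. Curves were fitted as two-parameter logistic models with a non-linear mixed effects model, from which the single-agent IC50 was taken.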

AZD1775 = compound: C=CCn1c(=O)c2cnc(Nc3ccc(N4CCN(C)CC4)cc3)nc2n1-c1cccc(C(C)(C)O)n1 [AZD1775]; conditions: max 3 µM
Outline: as §1

Trametinib = compound: CC(=O)Nc1cccc(-n2c(=O)n(C3CC3)c(=O)c3c(Nc4ccc(I)cc4F)n(C)c(=O)c(C)c32)c1 [Trametinib]; conditions: max 1 µM
Outline: as §1

Palbociclib = compound: CC(=O)c1c(C)c2cnc(Nc3ccc(N4CCNCC4)cn3)nc2n(C2CCCC2)c1=O [Palbociclib]; conditions: max 10 µM
Outline: as §1

AZD1390 = compound: CC(C)n1c(=O)n(C)c2cnc3cc(F)c(-c4ccc(OCCCN5CCCCC5)nc4)cc3c21 [AZD1390]; conditions: max 0.3 µM
Outline: as §1

Venetoclax = compound: CC1(C)CCC(CN2CCN(c3ccc(C(=O)NS(=O)(=O)c4ccc(NCC5CCOCC5)c([N+](=O)[O-])c4)c(Oc4cnc5[nH]ccc5c4)c3)CC2)=C(c2ccc(Cl)cc2)C1 [Venetoclax]; conditions: max 1 µM
Outline: as §1

Dasatinib = compound: CC1=C(C(=CC=C1)Cl)NC(=O)C2=CN=C(S2)NC3=CC(=NC(=N3)C)N4CCN(CC4)CCO [Dasatinib]; conditions: max 2 µM
Outline: as §1

SG3199 = compound: CC1=CN2[C@@H](C1)C=NC3=CC(=C(C=C3C2=O)OC)OCCCCCOC4=C(C=C5C(=C4)N=C[C@@H]6CC(=CN6C5=O)C)OC [SG3199]; conditions: max 0.001 µM
Outline: as §1

AZD2811 = compound: CCN(CCO)CCCOc1ccc2c(Nc3cc(CC(=O)Nc4cccc(F)c4)[nH]n3)ncnc2c1 [AZD2811]; conditions: max 1 µM
Outline: as §1

SN-38 = compound: CCc1c2c(nc3ccc(O)cc13)-c1cc3c(c(=O)n1C2)COC(=O)[C@]3(O)CC [SN-38]; conditions: max 0.3 µM
Outline: as §1

AZD0156 = compound: CN(C)CCCOc1ccc(-c2ccc3ncc4c(c3c2)n(C2CCOCC2)c(=O)n4C)cn1 [AZD0156]; conditions: max 3 µM
Outline: as §1

AZD4320 = compound: CN(CC[C@H](CSC1=CC=CC=C1)NC2=C(C=C(C=C2)S(=O)(=O)NC(=O)C3=CC=C(C=C3)N4CCC(CC4)[C@H](C5=CC=CC=C5C6=CC=C(C=C6)Cl)O)S(=O)(=O)C(F)(F)F)CCO [AZD4320]; conditions: max 1 µM
Outline: as §1

Alisertib = compound: COc1cc(Nc2ncc3c(n2)-c2ccc(Cl)cc2C(c2c(F)cccc2OC)=NC3)ccc1C(=O)O [Alisertib]; conditions: max 10 µM
Outline: as §1

Gefitinib = compound: COc1cc2ncnc(Nc3ccc(F)c(Cl)c3)c2cc1OCCCN1CCOCC1 [Gefitinib]; conditions: max 10 µM
Outline: as §1

Prexasertib = compound: COc1cccc(OCCCN)c1-c1cc(Nc2cnc(C#N)cn2)n[nH]1 [Prexasertib]; conditions: max 1 µM
Outline: as §1

Doxorubicin = compound: COc1cccc2c1C(=O)c1c(O)c3c(c(O)c1C2=O)C[C@@](O)(C(=O)CO)C[C@@H]3O[C@H]1C[C@H](N)[C@H](O)[C@H](C)O1 [Doxorubicin]; conditions: max 1 µM
Outline: as §1

AZD5153 = compound: COc1nnc2ccc(N3CCC(c4ccc(OCCN5CCN(C)C(=O)[C@H]5C)cc4)CC3)nn12 [AZD5153]; conditions: max 1 µM
Outline: as §1

Lapatinib = compound: CS(=O)(=O)CCNCc1ccc(-c2ccc3ncnc(Nc4ccc(OCc5cccc(F)c5)c(Cl)c4)c3c2)o1 [Lapatinib]; conditions: max 10 µM
Outline: as §1

AZD8186 = compound: C[C@@H](Nc1cc(F)cc(F)c1)c1cc(C(=O)N(C)C)cc2c(=O)cc(N3CCOCC3)oc12 [AZD8186]; conditions: max 3 µM
Outline: as §1

Crizotinib = compound: C[C@@H](Oc1cc(-c2cnn(C3CCNCC3)c2)cnc1N)c1c(Cl)ccc(F)c1Cl [Crizotinib]; conditions: max 10 µM
Outline: as §1

Savolitinib = compound: C[C@@H](c1ccc2nccn2c1)n1nnc2ncc(-c3cnn(C)c3)nc21 [Savolitinib]; conditions: max 1 µM
Outline: as §1

AZD6738 = compound: C[C@@H]1COCCN1C2=NC(=NC(=C2)C3(CC3)[S@](=N)(=O)C)C4=C5C=CNC5=NC=C4 [AZD6738]; conditions: max 10 µM
Outline: as §1

AZD5991 = compound: Cc1c2c(nn1C)CSCc1cc(n(C)n1)CSc1cc(c3ccccc3c1)OCCCc1c(C(=O)O)n(C)c3c-2c(Cl)ccc13 [AZD5991]; conditions: max 1 µM
Outline: as §1

AZD7648 = compound: Cc1cc2ncnn2cc1Nc1ncc2c(n1)n(C1CCOCC1)c(=O)n2C [AZD7648]; conditions: max 10 µM
Outline: as §1

Taselisib = compound: Cc1nc(-c2cn3c(n2)-c2ccc(-c4cnn(C(C)(C)C(N)=O)c4)cc2OCC3)n(C(C)C)n1 [Taselisib]; conditions: max 10 µM
Outline: as §1

Selumetinib = compound: Cn1cnc2c(F)c(Nc3ccc(Br)cc3Cl)c(C(=O)NOCCO)cc21 [Selumetinib]; conditions: max 10 µM
Outline: as §1

Olaparib = compound: O=C(c1cc(Cc2n[nH]c(=O)c3ccccc23)ccc1F)N1CCN(C(=O)C2CC2)CC1 [Olaparib]; conditions: max 10 µM
Outline: as §1

| Cell Line | IC50, cell viability 72 h (Capivasertib) [nM] | IC50, cell viability 72 h (AZD1775) [nM] | IC50, cell viability 72 h (Trametinib) [nM] | IC50, cell viability 72 h (Palbociclib) [nM] | IC50, cell viability 72 h (AZD1390) [nM] | IC50, cell viability 72 h (Venetoclax) [nM] | IC50, cell viability 72 h (Dasatinib) [nM] | IC50, cell viability 72 h (SG3199) [nM] | IC50, cell viability 72 h (AZD2811) [nM] | IC50, cell viability 72 h (SN-38) [nM] | IC50, cell viability 72 h (AZD0156) [nM] | IC50, cell viability 72 h (AZD4320) [nM] | IC50, cell viability 72 h (Alisertib) [nM] | IC50, cell viability 72 h (Gefitinib) [nM] | IC50, cell viability 72 h (Prexasertib) [nM] | IC50, cell viability 72 h (Doxorubicin) [nM] | IC50, cell viability 72 h (AZD5153) [nM] | IC50, cell viability 72 h (Lapatinib) [nM] | IC50, cell viability 72 h (AZD8186) [nM] | IC50, cell viability 72 h (Crizotinib) [nM] | IC50, cell viability 72 h (Savolitinib) [nM] | IC50, cell viability 72 h (AZD6738) [nM] | IC50, cell viability 72 h (AZD5991) [nM] | IC50, cell viability 72 h (AZD7648) [nM] | IC50, cell viability 72 h (Taselisib) [nM] | IC50, cell viability 72 h (Selumetinib) [nM] | IC50, cell viability 72 h (Olaparib) [nM] |
| --- | --- | --- | --- | --- | --- | --- | --- | --- | --- | --- | --- | --- | --- | --- | --- | --- | --- | --- | --- | --- | --- | --- | --- | --- | --- | --- | --- |
| RL95-2 (Endometrial Carcinoma) | 1400 | 490 | 540 | > 10000 | > 300 | > 1000 | > 2000 | > 1 | 305 | > 300 | > 3000 | > 1000 | 2140 | > 10000 | 93.8 | > 1000 | > 1000 | > 10000 | > 3000 | > 10000 | > 1000 | 8390 | 266 | > 10000 | > 10000 | 9130 | > 10000 |
| AsPC-1 (Pancreatic Carcinoma) | > 10000 | > 3000 | 866 | > 10000 | > 300 | > 1000 | > 2000 | > 1 | > 1000 | > 300 | > 3000 | > 1000 | > 10000 | > 10000 | > 1000 | > 1000 | > 1000 | > 10000 | > 3000 | > 10000 | > 1000 | > 10000 | > 1000 | > 10000 | > 10000 | > 10000 | > 10000 |
| OVTOKO (Ovarian Carcinoma) | 8520 | 2100 | > 1000 | > 10000 | > 300 | > 1000 | 56.4 | > 1 | > 1000 | > 300 | > 3000 | > 1000 | > 10000 | > 10000 | 714 | > 1000 | 948 | > 10000 | 2650 | > 10000 | > 1000 | > 10000 | > 1000 | > 10000 | 693 | > 10000 | > 10000 |
| RT4 (Bladder Carcinoma) | > 10000 | 2260 | 328 | > 10000 | > 300 | > 1000 | > 2000 | > 1 | > 1000 | 43.4 | > 3000 | > 1000 | 2400 | > 10000 | > 1000 | 642 | 840 | > 10000 | > 3000 | > 10000 | > 1000 | > 10000 | > 1000 | > 10000 | > 10000 | > 10000 | > 10000 |
| BALL-1 (B-Lymphoblastic Leukemia) | 7830 | 131 | > 1000 | 1150 | > 300 | 4.7 | > 2000 | > 1 | 865 | 1.57 | > 3000 | 5.84 | 84.9 | > 10000 | 5.12 | 123 | 59 | > 10000 | > 3000 | 5240 | > 1000 | 487 | > 1000 | > 10000 | > 10000 | > 10000 | 6290 |
| AN3-CA (Endometrial Carcinoma) | 1650 | 1290 | > 1000 | > 10000 | > 300 | > 1000 | > 2000 | > 1 | > 1000 | > 300 | > 3000 | > 1000 | 1370 | > 10000 | 66.5 | > 1000 | > 1000 | > 10000 | > 3000 | > 10000 | > 1000 | > 10000 | > 1000 | > 10000 | 615 | > 10000 | > 10000 |
| JHH-1 (Hepatocellular Carcinoma) | > 10000 | 1270 | 410 | > 10000 | > 300 | > 1000 | > 2000 | > 1 | > 1000 | > 300 | > 3000 | > 1000 | > 10000 | > 10000 | 259 | > 1000 | > 1000 | > 10000 | > 3000 | > 10000 | > 1000 | > 10000 | > 1000 | > 10000 | > 10000 | > 10000 | > 10000 |
| HTC-C3 (Thyroid Gland Carcinoma) | > 10000 | 2300 | 31.8 | > 10000 | > 300 | > 1000 | 128 | > 1 | > 1000 | > 300 | > 3000 | > 1000 | > 10000 | > 10000 | 128 | > 1000 | 130 | > 10000 | > 3000 | > 10000 | > 1000 | 3090 | > 1000 | > 10000 | > 10000 | 941 | > 10000 |
